Experimental findings from US20250382308A1, “COMPOUNDS ACTIVE TOWARDS BROMODOMAINS” (NUEVOLUTION A/S, priority 2022, published 2025) are described below.

The target in test [1] is first bromodomain of BRD4 (Homo sapiens (Human), UniProt O60885). Description: Bromoscan binding assay BRD4 (1). The following applies: for Kd: Bromoscan, geometric mean where multiple measurements have been made; for Selectivity BRD4(2)/BRD4(1): ratio BRD4(2) Kd / BRD4(1) Kd. Here is the method:
(§1) Compounds were assayed for binding affinity using bromoscan assays and a phosphodiesterase three assay.
(§2) Bromoscan assays were run by DiscoveRx Corporation. The relevant assay names are BRD4 (1) for the first bromodomain of BRD4 and BRD4 (2) for the second bromodomain of BRD4. Further Bromoscan assays covering other bromodomains may be employed to establish the selectivity profile of a compound of interest. To run the Bromoscan assay, a T7 phage strain displaying the relevant bromodomain was grown in parallel in 24-well blocks in an E. coli host derived from the BL21 strain. E. coli were grown to log-phase and infected with T7 phage from a frozen stock (multiplicity of infection=0.4) and incubated with shaking at 32° C. until lysis (90-150 minutes). The lysates were centrifuged (5,000×g) and filtered (0.2 μm) to remove cell debris. […] The liganded beads were blocked with excess biotin and washed with blocking buffer (SeaBlock (Pierce), 1% BSA (bovine serum albumin), 0.05% Tween 20, 1 mM DTT (dithiothreitol)) to remove unbound ligand and to reduce non-specific phage binding. […] Test compounds were prepared as 1000× stocks in 100% DMSO and subsequently diluted 1:10 in monoethylene glycol (MEG) to create stocks at 100× the screening concentration (resulting stock solution is 10% DMSO/90% MEG). The compounds were then diluted directly into the assays such that the final concentration of DMSO and MEG were 0.1% and 0.9%, respectively. All reactions were performed in polystyrene 96-well plates in a final volume of 0.135 ml. […] The bromodomain concentration in the eluates was measured by qPCR (quantitative real-time polymerase chain reaction). Binding constants (Kds) were calculated with a standard dose-response curve using the Hill equation: Response=Blackground+((Signal-Background)/(1+Kd^Hill Slope/Dose^Hill Slope)). The Hill Slope was set to −1. Curves were fitted using a non-linear least square fit with the Levenberg-Marquardt algorithm.

For test [2], the target named is second bromodomain of BRD4 (Homo sapiens (Human), UniProt O60885). The experiment in a line: Bromoscan binding assay BRD4 (2). The note with it: geometric mean where multiple measurements have been made. How it is done:
as §1, §2

For test [3], the target named is human recombinant phosphodiesterase (PDE3A) (Homo sapiens (Human), UniProt Q14432). The experiment in a line: Radiometric PDE3A assay. The note with it: [3H]-cAMP hydrolysis, 20 minutes at 30° C. It is filed as biochemical. How it is done:
Partially purified human recombinant phosphodiesterase (PDE3A) was obtained by cloning cDNA and expressing in S. frugiperda insect cells using a baculovirus expression system. Cells were harvested from culture by centrifuging at 400×g for 5 minutes. Cell pellet was resuspended in 20 ml of RIPA Buffer (150 mM NaCl, 10 mM Tris, 0.1% NP-40, pH8.3), 4 ml/200 ml of culture, plus protease inhibitors (100 μl/10 ml) and incubated on ice for 10-20 minutes then spun at 3500×g for 10 minutes at 4° C. Supernatant was kept and the pellet thrown away. Tritium-labeled cyclic AMP was hydrolysed to 5′-AMP by PDE3A. The 5′-AMP was then further hydrolysed to adenosine by nucleotidase in snake venom. An anion-exchange resin binds all charged nucleotides and leaves [3H]adenosine as the only labeled compound to be counted by liquid scintillation. The radiometric assay method is a modification of the two-step method of Thompson and Appleman [Biochemistry 10; 311-316; 1971], adapted for a 96 well plate format. 50 μl of diluted PDE3A was incubated with 50 μl of [3H]-CAMP (specific activity 25 Ci/mmol) and 11 μl of 50% DMSO (or compound dilution) for 20 minutes at 30° C. The enzyme was diluted in 20 mM Tris HCl pH7.4 (×2.2 final concentration) and [3H]-cAMP were diluted in 10 mM MgCl2, 40 mM Tris HCl pH 7.4 (×2.2 final concentration). Reactions were carried out in Greiner 96 deep well 1 ml master-block. The plates were centrifuged for 9 seconds before the 20 minutes incubation. The reaction was terminated by denaturing the PDE enzyme (at 70° C. for 2 minutes, plates were left to cool on ice for 10 minutes) after which 25 μl snake venom nucleotidase (225 ug/ml final concentration) was added and incubated for 10 minutes (at 30° C.), plates were centrifuged for 9 seconds before incubation. After incubation 200 μl Dowex resin (1×8, 200-400 mesh) was added and the plate was shaken for 20 minutes then centrifuged for 3 minutes at 1000×g. 50 μl of supernatant was removed and added to 200 μl of MicroScint-20 in white plates (Greiner 96-well Optiplate) and shaken for 30 minutes before reading on Perkin Elmer TopCount Scintillation Counter. GraphPad Prism™ was used to calculate the IC50 values using a sigmoidal dose response (variable slope). The analysis measures 4 parameters including the best fit values for the bottom and top fit of the curve, the hill slope value and the IC50 value.

Chain of human recombinant phosphodiesterase (PDE3A) (Q14432 whole entry): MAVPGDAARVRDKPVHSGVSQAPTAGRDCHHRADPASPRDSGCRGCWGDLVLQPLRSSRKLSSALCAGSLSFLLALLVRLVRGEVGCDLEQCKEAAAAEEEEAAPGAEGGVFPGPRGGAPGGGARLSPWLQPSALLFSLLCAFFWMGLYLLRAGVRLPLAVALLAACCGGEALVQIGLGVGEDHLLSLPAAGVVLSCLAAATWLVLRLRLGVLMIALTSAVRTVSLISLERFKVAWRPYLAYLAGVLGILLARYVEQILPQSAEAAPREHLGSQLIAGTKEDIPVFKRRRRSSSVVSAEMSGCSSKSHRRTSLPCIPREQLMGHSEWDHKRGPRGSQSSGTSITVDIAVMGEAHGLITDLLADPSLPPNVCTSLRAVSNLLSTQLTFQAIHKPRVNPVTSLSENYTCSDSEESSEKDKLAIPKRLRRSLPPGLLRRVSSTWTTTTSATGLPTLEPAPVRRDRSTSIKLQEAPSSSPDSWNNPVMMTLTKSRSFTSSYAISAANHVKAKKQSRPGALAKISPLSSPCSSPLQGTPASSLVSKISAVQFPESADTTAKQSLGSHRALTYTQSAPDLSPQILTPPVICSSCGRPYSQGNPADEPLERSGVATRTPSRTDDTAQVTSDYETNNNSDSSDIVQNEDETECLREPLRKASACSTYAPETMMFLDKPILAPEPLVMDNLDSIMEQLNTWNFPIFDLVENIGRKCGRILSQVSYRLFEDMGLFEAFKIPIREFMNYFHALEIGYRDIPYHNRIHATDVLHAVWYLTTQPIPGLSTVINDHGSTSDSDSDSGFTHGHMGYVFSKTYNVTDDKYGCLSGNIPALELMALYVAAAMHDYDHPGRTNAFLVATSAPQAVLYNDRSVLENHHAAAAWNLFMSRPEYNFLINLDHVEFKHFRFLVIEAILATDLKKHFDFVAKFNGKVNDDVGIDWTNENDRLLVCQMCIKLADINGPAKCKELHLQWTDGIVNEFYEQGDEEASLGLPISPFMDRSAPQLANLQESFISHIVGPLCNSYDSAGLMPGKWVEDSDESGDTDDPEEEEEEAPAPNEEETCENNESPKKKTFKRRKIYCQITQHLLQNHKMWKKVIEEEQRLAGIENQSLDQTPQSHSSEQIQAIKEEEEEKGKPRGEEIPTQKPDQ

For orientation: Kd means the equilibrium constant for the complex coming apart. A low value points to tighter binding. The IC50 is the point on the concentration scale where inhibition reaches its midpoint. Turning to `COc1cc(NC(=O)c2cc3c(nc2N2C4CCC2CC4)COC3)cc2c(C)cc(=O)[nH]c12` [Example 39, 2-(7-azabicyclo[2.2.1]heptan-7-yl)-N-(8-methoxy-4-methyl-2-oxo-1H-quinolin-6-yl)-5,7-dihydrofuro[3,4-b]pyridine-3-carboxamide], the values for the dissociation constant (Kd) in test [1] and in test [2] were 7 nM and 300 nM, respectively. Also, the “Selectivity BRD4(2)/BRD4(1)” value in test [1] was determined as 43. For the same molecule, the IC50 in test [3] was over 10 µM.
As for `Cc1cc(=O)[nH]c2c(OCCO)cc(NC(=O)c3cc4c(nc3N3CCOCC3)COC4)cc12` [Example 36, N-[8-(2-hydroxyethoxy)-4-methyl-2-oxo-1H-quinolin-6-yl]-2-morpholino-5,7-dihydrofuro[3,4-b]pyridine-3-carboxamide], in test [1], the dissociation constant (Kd) was 27 nM and the “Selectivity BRD4(2)/BRD4(1)” value stood at 15. Besides, the Kd in test [2] is 400 nM. In addition, in test [3], the half-inhibitory concentration (IC50) is over 10 µM.
The matching figures for `COc1cc(NC(=O)c2cc3c(nc2N2CCOCC2)CCC3)cc2c(C)cc(=O)[nH]c12` [Example 29, N-(8-methoxy-4-methyl-2-oxo-1H-quinolin-6-yl)-2-morpholino-6,7-dihydro-5H-cyclopenta[b]pyridine-3-carboxamide]: 18 nM, 106, 1900 nM and over 10 µM.
The matching figures for `COc1cc(NC(=O)c2cc3c(nc2N2CCOCC2)CNC3)cc2c(C)cc(=O)[nH]c12` [Example 1, N-(8-methoxy-4-methyl-2-oxo-1H-quinolin-6-yl)-2-morpholino-6,7-dihydro-5H-pyrrolo[3,4-b]pyridine-3-carboxamide]: 8 nM, 75, 600 nM and over 10 µM.
The matching figures for `Cc1cc(=O)[nH]c2c(OC3CNC3)cc(NC(=O)c3cc4c(nc3N3CCOCC3)COC4)cc12` [Example 37, N-[8-(azetidin-3-yloxy)-4-methyl-2-oxo-1H-quinolin-6-yl]-2-morpholino-5,7-dihydrofuro[3,4-b]pyridine-3-carboxamide]: 35 nM, over 286, over 10000 nM and over 10 µM.
